Data taken from ChEMBL document CHEMBL1201862, “PubChem BioAssay data set” (2004).
Activity calls are given as the source filed them.

How the values were obtained:
[1] = molecular target: T1, NAD-dependent protein deacylase sirtuin-5, mitochondrial (Homo sapiens, UniProt Q9NXA8); test: blockers of sirtuin-5 peptide desuccinylation – biochemical, fluorescence imaging, cherry-pick, set 6, dose response (AID 720597)
[2] = non-specific 3'UTR reporter inhibition in Clone20-Shn3RL – cell-based, Renilla luciferase, cherry-picked, counter-screen for Shn3 inhibitor project, dose response (AID 624133); type: functional
[3] = Shn3 3'UTR reporter signal decrease – cell-based, Clone20 osteoblasts, firefly luciferase, cherry-pick, set 2, Schnurri-3 inhibitor project, dose response (AID 720490); type: functional;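 further: actives lower the luminescence signal as inhibitors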
[4] = reduction of Shn3 3'UTR-driven luciferase in osteoblasts – cell-based, Clone20 osteoblasts, firefly luciferase, cherry-picked, dose response (AID 624132); type: functional;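 further: firefly luciferase luminescence from reporter carrying the Shn3 3'UTR in osteoblasts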
[5] = loss of viability in HepG2 cells – cell-based, CellTiter-Glo, cherry-picked, cytotoxicity control for Shn3 inhibitor project, dose response (AID 624134); type: functional
[6] = decrease of insulin promoter-GFP reporter – imaging, high-content screening, mouse beta cells (AID 1628); type: functional; conditions: MIN6
[7] = IC50 of Artemis nuclease activity blockers – biochemical, fluorescence intensity, dose response (AID 720701); type: functional;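 further: Artemis endonuclease enzyme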
[8] = MIN6 cell viability loss – mouse insulinoma, cytotoxicity control, dose response (AID 2122); type: functional;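 further: confirmatory high-throughput counterscreen run to flag cytotoxic compounds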
[9] = Mycobacterium tuberculosis BioA enzyme inhibitor Measured in Biochemical System Using Plate Reader - 2163-02_Inhibitor_Dose_DryPowder_Activity.
[10] = molecular target: Endoplasmic reticulum aminopeptidase 1 (Homo sapiens, UniProt Q9NZ08); test: inhibition of human ERAP1 enzyme activity – biochemical, cherry-pick, set 2, plate reader, dose response (AID 743314)
Sequence of Endoplasmic reticulum aminopeptidase 1 (Q9NZ08 whole entry): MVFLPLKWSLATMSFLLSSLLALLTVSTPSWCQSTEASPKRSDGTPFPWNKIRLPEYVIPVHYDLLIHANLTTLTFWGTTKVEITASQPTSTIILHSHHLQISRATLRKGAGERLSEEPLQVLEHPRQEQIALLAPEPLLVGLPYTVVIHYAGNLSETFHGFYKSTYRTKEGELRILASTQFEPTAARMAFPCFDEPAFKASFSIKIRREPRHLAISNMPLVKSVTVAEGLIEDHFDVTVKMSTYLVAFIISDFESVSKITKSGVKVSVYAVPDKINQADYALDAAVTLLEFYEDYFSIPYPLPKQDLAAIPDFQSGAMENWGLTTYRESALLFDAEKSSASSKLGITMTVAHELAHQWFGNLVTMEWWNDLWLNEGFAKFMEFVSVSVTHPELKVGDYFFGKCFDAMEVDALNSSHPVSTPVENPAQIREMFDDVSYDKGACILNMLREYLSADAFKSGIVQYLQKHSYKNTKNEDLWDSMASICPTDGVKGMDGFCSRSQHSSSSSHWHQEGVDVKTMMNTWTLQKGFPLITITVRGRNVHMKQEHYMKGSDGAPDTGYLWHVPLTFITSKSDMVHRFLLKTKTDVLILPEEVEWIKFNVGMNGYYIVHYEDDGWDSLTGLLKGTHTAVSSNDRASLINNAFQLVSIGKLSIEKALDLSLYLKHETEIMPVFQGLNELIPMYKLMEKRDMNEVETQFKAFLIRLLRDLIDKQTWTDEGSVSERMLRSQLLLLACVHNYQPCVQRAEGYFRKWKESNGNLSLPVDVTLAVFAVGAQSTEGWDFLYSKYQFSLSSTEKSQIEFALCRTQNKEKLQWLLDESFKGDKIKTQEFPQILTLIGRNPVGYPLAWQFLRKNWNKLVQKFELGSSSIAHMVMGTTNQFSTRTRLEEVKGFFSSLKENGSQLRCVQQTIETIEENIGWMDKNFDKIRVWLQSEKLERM

[11] = molecular target: T1, NAD-dependent protein deacylase sirtuin-5, mitochondrial; test: sirtuin-5 deacylation blockers, concentration series – biochemical, fluorescence imaging, cherry-pick, set 5, dose response (AID 720591);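 further: desuccinylation of succinyl peptide AMC substrate read as fluorescence after trypsin release; potency of inhibitors that lower fluorescence and may act on trypsin instead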

T1 sequence (Q9NXA8 whole entry): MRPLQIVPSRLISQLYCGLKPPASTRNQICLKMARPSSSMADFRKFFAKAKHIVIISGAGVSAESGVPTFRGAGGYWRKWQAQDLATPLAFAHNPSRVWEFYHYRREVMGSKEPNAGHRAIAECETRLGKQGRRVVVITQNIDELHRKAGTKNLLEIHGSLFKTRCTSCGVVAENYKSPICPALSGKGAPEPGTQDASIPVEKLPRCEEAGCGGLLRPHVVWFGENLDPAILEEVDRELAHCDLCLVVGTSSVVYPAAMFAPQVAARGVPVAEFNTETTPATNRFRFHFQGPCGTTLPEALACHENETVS

SMILES: COc1ccc(NC(=O)N2C[C@H](O)COC[C@@H]3O[C@@H](CC(=O)N4CCCCC4)CC[C@H]32)cc1
- AC50 [1]: 26.1 µM (active)

SMILES: Cn1c(=O)c2c(nc(NCc3ccco3)n2CCc2ccccc2)n(C)c1=O
- AC50 [2]: 18.3 µM (active)
- AC50 [3]: 2.27 µM (active)
- AC50 [4]: 2.34 µM (active)
- AC50 [5]: 50.9 µM (active)

SMILES: COCCNc1nc(-n2nc(C)cc2C)nc2sc3c(c12)CCCC3
- IC50 [6]: 2.54 µM (active)
- IC50 [7]: 11.7 µM (active)
- IC50 [8]: 2.1 µM (active)

SMILES: O=C(Nc1cccc(Cl)c1)N1CCN(c2ccccc2)CC1
- AC50 [9]: 11 µM (active)

SMILES: Cc1cc(=O)oc2c(CN3CCN(CCO)CC3)c(O)ccc12
- AC50 [10]: 9.03 µM (active)

SMILES: Cc1ccc(C(=O)COC(=O)CN2C(=O)C3C4CC(C(Br)C4Br)C3C2=O)cc1 (stereo unspecified)
- AC50 [11]: > 30 µM (inactive)
